# Laboratory results from patent US11332461B2, “2-(1H-pyrazol-3-yl) phenol compound and use thereof” (BEIJING JIALIN PHARMACEUTICAL INC., priority 2017, dated 2022).
# pEC50, pKi: −log10 of the molar value.
# Assays:
# BRM protein = BRM protein (Homo sapiens, UniProt P51531); experiment: Ki of compounds (Table 1; no method described); assay type: binding
# [1] = test system: H1299 cells (BRG1−/BRM+ cell line); experiment: Cell viability test, tetrazolium salt (MTT) method; assay type: cell-based; conditions: Homo sapiens, NCI-H1299, cultured 3-4 days with compound, OD 490 nm
# Excerpt: A tetrazolium salt (MTT) method is used for determining the pharmacodynamics activity of the compounds of the present invention by using H1299 cells as the cell line, wherein the cell line has deletion of the BRG1 gene (BRG1−), and has no deletion of the BRM gene (BRM+). That is, the cells of the cell line cannot express a BRG1 protein, but can normally express a BRM protein. Small molecules that could prevent the BRM protein from interacting with the chromosomes in the cells, could prevent the BRM protein from exerting functions in the cells. According to the law of synergistic lethality, in a BRG1-gene-deleted cell, if the function of the BRM protein is blocked, cell death will be caused, thereby achieving the function that the small molecules kill cancer cells.
# The specific steps of the test are as follows: • (1) different experimental cell lines are subcultured into a 96-well plate, and to prevent a marginal effect, the peripheries of the 96-well plate are added with 100 μL of PBS as a blank, wherein the cell line as used is H1299 cells (BRG1−/BRM+cell line); • (2) when the cells are in adherent growth to be 40-50%, different concentrations of drug molecules and DMSO as controls are added, the cells treated with the small molecules continue to be cultured for 3-4 days, and the medium is replaced by a medium supplemented with small molecules during the culture; • (3) after the 96-well plate treated with DMSO in the control group is full of the cells, each well is added with 20 μL of a MTT mother liquor (5 mg/mL); • (4) the cell plate is placed back into a […] incubator of 37° C. and continue to be incubated for 4 hours; • (5) the MTT solution is pipetted off, and each well is added with 150 μL DMSO; • (6) the 96-well plate is placed in a shaker at room temperature with protection from light for 15 min, until purple crystals are completely dissolved. • (7) The absorbance (OD) of each well is determined by a SpectraMax M5 multi-well plate reader (Molecular Devices, USA) at a wavelength of 490 nm.
# According to a conventional detection method, the EC50 values of respective compounds (small molecules) are determined, and the results are summarized in Table 1.
# Sequence of BRM protein (P51531 whole entry): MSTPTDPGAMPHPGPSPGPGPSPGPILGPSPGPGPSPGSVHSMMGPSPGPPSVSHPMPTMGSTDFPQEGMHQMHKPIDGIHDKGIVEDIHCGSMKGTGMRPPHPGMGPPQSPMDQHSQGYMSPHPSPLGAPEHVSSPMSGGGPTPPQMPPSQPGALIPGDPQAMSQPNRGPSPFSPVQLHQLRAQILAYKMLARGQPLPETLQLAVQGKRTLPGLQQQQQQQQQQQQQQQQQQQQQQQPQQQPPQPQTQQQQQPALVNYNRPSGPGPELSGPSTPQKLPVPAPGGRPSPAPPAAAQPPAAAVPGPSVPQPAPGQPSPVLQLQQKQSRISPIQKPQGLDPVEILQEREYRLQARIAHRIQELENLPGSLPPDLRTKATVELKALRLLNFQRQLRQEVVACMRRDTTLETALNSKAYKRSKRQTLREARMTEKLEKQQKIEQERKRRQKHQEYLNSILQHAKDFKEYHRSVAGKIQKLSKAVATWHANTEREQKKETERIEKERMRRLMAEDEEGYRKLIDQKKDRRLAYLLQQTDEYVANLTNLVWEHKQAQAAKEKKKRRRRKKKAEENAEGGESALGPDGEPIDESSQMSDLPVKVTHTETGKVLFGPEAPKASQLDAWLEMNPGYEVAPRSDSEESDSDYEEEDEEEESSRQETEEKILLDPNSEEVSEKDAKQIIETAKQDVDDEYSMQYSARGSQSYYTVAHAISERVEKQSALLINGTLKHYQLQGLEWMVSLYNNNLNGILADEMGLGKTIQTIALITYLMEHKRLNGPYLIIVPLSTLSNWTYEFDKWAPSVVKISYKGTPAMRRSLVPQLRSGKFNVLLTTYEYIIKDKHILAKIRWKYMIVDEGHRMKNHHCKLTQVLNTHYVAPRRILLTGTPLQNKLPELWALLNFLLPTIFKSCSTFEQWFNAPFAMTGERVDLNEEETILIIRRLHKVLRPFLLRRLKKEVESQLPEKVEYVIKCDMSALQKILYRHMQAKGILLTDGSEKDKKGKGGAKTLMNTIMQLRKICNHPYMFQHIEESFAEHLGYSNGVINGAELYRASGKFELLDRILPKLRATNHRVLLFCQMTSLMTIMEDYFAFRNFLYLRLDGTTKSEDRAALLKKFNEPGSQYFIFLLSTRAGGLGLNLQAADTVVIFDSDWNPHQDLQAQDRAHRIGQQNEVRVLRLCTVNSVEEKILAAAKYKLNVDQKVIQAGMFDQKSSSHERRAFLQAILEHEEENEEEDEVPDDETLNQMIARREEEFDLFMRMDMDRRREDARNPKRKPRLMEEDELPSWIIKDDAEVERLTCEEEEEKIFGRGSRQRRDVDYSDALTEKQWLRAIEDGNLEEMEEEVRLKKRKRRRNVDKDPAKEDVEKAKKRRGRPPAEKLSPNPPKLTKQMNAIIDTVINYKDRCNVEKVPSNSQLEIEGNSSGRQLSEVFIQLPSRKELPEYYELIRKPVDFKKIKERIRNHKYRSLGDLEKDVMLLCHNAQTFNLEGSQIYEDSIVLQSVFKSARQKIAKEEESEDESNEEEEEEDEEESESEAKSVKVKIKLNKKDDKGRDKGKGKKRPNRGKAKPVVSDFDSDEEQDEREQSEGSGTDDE
SMILES,pKi (BRM protein),pEC50 [1]
O=C(Nc1cc(-c2cc(F)ccc2O)n[nH]1)c1cnccn1 [BRM2-166],5.77,5.14
Oc1ccc(F)cc1-c1cc(-c2ccc(N3CCCCC3)cc2)[nH]n1 [BRM2-33],5.57,4.82
O=C(Cc1ccc(O)cc1)Nc1cc(-c2cc(F)ccc2O)n[nH]1 [BRM2-164],5.16,< 4.70
CN1CCN(c2cccc(-c3cc(-c4cc(F)ccc4O)n[nH]3)c2)CC1 [BRM2-39],5.74,5.03
CCN(Cc1ccccc1)C(=O)c1cc(-c2cc(F)ccc2O)n[nH]1 [BRM2-144],5.34,< 4.70
O=C(Nc1ccc(-c2cc(-c3cc(F)ccc3O)n[nH]2)cc1)c1ccccn1 [BRM2-112],6.05,5.19
Cc1ccccc1-c1cc(-c2cc(F)ccc2O)n[nH]1 [BRM2-11],5.80,< 4.70
CC(C)(C)c1ccc(-c2cc(-c3cc(F)ccc3O)n[nH]2)cc1 [BRM2-8],5.66,5.07
Oc1ccc(F)cc1-c1cc(N2CC3CC2CN3c2ccccn2)[nH]n1 (stereo not shown) [BRM2-41],5.57,4.87
COC(=O)C(CCS(C)(=O)=O)NC(=O)c1cc(-c2cc(F)ccc2O)n[nH]1 (stereo not shown) [BRM2-149],5.92,5.05
O=C(NCCc1ccc(O)cc1)c1cc(-c2cc(F)ccc2O)n[nH]1 [BRM2-137],5.96,< 4.70
O=C(Nc1cc(-c2cc(F)ccc2O)n[nH]1)c1ccccc1 [BRM2-162],5.17,< 4.70
COC(=O)C1CCCN1C(=O)c1cc(-c2cc(F)ccc2O)n[nH]1 (stereo not shown) [BRM2-150],5.74,4.99
Cc1ccc(C(=O)Nc2ccc(-c3cc(-c4cc(F)ccc4O)n[nH]3)cc2)cn1 [BRM2-111],6.10,5.42
CN1CCN(c2ccc(-c3cc(-c4cc(F)ccc4O)n[nH]3)cc2)CC1 [BRM2-32],5.43,5.24
O=C(Nc1ccc(-c2cc(-c3cc(F)ccc3O)n[nH]2)cc1)C12CC3CC(CC(C3)C1)C2 [BRM2-106],6.70,6.05
Nc1cccc(O)c1-c1cc(-c2ccc(Br)cc2)[nH]n1 [BRM2-6],5.64,4.92
Cc1cccc(C)c1-c1ccc(-c2cc(-c3cc(F)ccc3O)n[nH]2)cc1 [BRM2-27],5.57,< 4.70

# The remaining lines, values ahead:
pKi (BRM protein),pEC50 [1],SMILES
6.10,5.37,O=C(NCCc1ccc(F)cc1)c1cc(-c2cc(F)ccc2O)n[nH]1 [BRM2-157]
5.39,< 4.70,O=C(Nc1ccc(-c2cc(-c3cc(F)ccc3O)n[nH]2)cc1)c1c(F)cccc1F [BRM2-105]
5.60,4.87,O=C(Cc1ccc(F)cc1)Nc1cc(-c2cc(F)ccc2O)n[nH]1 [BRM2-168]
6.40,5.77,NC(=O)CCC(NC(=O)c1cc(-c2cc(F)ccc2O)n[nH]1)C(=O)N1CCOCC1 (stereo not shown) [BRM2-156]
5.28,< 4.70,CC(C)N(Cc1ccccc1)C(=O)c1cc(-c2cc(F)ccc2O)n[nH]1 [BRM2-145]
5.85,5.12,CN1CCN(c2ccccc2-c2cc(-c3cc(F)ccc3O)n[nH]2)CC1 [BRM2-34]
6.22,5.82,O=C(Nc1ccc(-c2cc(-c3cc(F)ccc3O)n[nH]2)cc1)c1cnccn1 [BRM2-124]
5.34,< 4.70,CCc1ccc(-c2cc(-c3cc(F)ccc3O)n[nH]2)cc1 [BRM2-9]
5.55,4.76,CN(Cc1ccccc1)C(=O)c1cc(-c2cc(F)ccc2O)n[nH]1 [BRM2-143]
5.70,< 4.70,O=C(NCc1ccc(O)cc1)c1cc(-c2cc(F)ccc2O)n[nH]1 [BRM2-138]
6.22,5.62,O=C(Nc1ccc(-c2cc(-c3cc(F)ccc3O)n[nH]2)cc1)c1cccnc1 [BRM2-121]
5.52,4.94,O=C(Nc1ccc(-c2cc(-c3cc(F)ccc3O)n[nH]2)cc1)c1cccc(F)c1F [BRM2-114]
5.49,4.74,Nc1cc(-c2cc(F)ccc2O)n[nH]1 [BRM2-160]
5.82,5.48,Nc1c(F)ccc(O)c1-c1cc(-c2ccc(-c3ccc(F)cc3)cc2)[nH]n1 [BRM2-22]
6.30,5.60,COC(=O)C(Cc1cnc[nH]1)NC(=O)c1cc(-c2cc(F)ccc2O)n[nH]1 (stereo not shown) [BRM2-152]
6.05,5.77,CN1CCCN(c2ccc(-c3cc(-c4cc(F)ccc4O)n[nH]3)cc2)CC1 [BRM2-31]
6.15,5.55,O=C(Nc1ccc(-c2cc(-c3cc(F)ccc3O)n[nH]2)cc1)c1ccnc(Cl)c1 [BRM2-123]
5.70,4.83,O=C(NCCc1ccc(Cl)cc1)c1cc(-c2cc(F)ccc2O)n[nH]1 [BRM2-140]
5.70,4.98,CS(=O)(=O)c1ccc(-c2ccc(-c3cc(-c4cc(F)ccc4O)n[nH]3)cc2)cc1 [BRM2-30]
5.70,< 4.70,COc1cccc(C(=O)Nc2ccc(-c3cc(-c4cc(F)ccc4O)n[nH]3)cc2)c1OC [BRM2-113]
5.36,4.76,O=C(Nc1cc(-c2cc(F)ccc2O)n[nH]1)c1ccc(O)cc1 [BRM2-163]
5.74,5.17,Nc1c(F)ccc(O)c1-c1cc(-c2ccc(Br)cc2)[nH]n1 [BRM2-4]
5.52,4.74,O=C(NCc1ccc(F)cc1)c1cc(-c2cc(F)ccc2O)n[nH]1 [BRM2-136]
